Measured values as given in PubChem BioAssay (NCI).
Values joined by “and” are separate entries in the source; they are usually repeats but may differ in a detail not shown here. Equal entries are not always repeated.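 Dose response: 5 concentrations. Exposure: 48 h. Format: 96-well plates. Endpoint: linear interpolation; highest concentration if not reached. GI50 is the concentration that inhibits growth by half. The concentration for full growth arrest is given as TGI.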

What was measured:
Assay in all cases: NCI anticancer screen, dose series, 48 h
DU-145 prostate = system: DU-145 prostate
HL-60(TB) leukemia = system: HL-60(TB) leukemia
HOP-92 NSCLC = system: HOP-92 NSCLC
HS 578T breast = system: HS 578T breast
M14 melanoma = system: M14 melanoma
MDA-MB-231 breast = system: MDA-MB-231 breast
NCI-H460 lung = system: NCI-H460 lung
NCI/ADR-RES ovarian = system: NCI/ADR-RES ovarian
SF-539 CNS = system: SF-539 CNS
SNB-19 CNS = system: SNB-19 CNS

SMILES | GI50 (DU-145 prostate) | TGI (DU-145 prostate) | GI50 (HL-60(TB) leukemia) | GI50 (HOP-92 NSCLC) | TGI (HOP-92 NSCLC) | GI50 (HS 578T breast) | TGI (HS 578T breast) | GI50 (M14 melanoma) | GI50 (MDA-MB-231 breast) | TGI (MDA-MB-231 breast) | GI50 (NCI-H460 lung) | TGI (NCI-H460 lung) | GI50 (NCI/ADR-RES ovarian) | TGI (NCI/ADR-RES ovarian) | GI50 (SF-539 CNS) | TGI (SF-539 CNS) | GI50 (SNB-19 CNS) | TGI (SNB-19 CNS) | TGI (HL-60(TB) leukemia) | TGI (M14 melanoma)
CN(C)C(=O)Nc1nc2cc(Cl)c(Cl)cc2[nH]1 | 2.02 µM | 24.9 µM | 0.241 µM | 16.1 µM | > 100 µM | 1.26 µM | > 55.1 µM | 0.603 µM | 3.42 µM | > 100 µM | 0.44 µM | 30 µM | 0.507 µM | 9.37 µM | 0.537 µM | 6.05 µM | 11.6 µM | > 100 µM | – | –
O=C1CCc2c(sc3[nH]c(=S)n(-c4cc(C(F)(F)F)cc(C(F)(F)F)c4)c(=O)c23)C1 | 0.775 µM | > 40 µM | 0.304 µM | 0.205 µM | 0.692 µM | 0.339 µM | 16.4 µM | 0.463 µM | 0.336 µM | 1.45 µM | 0.353 µM | 2.03 µM | 0.351 µM | 11.4 µM | 0.362 µM | 1.7 µM | 0.384 µM | > 37 µM | 1.21 µM | 11.9 µM
COc1ccccc1/C=C1\COc2ccc(-c3ccccc3)cc2C1=O | 2.53 µM | 6.63 µM | 1.86 µM | 4.18 µM | > 100 µM | 2.75 µM | 7.29 µM | 4 µM | 3.66 µM | 17.7 µM | 2.1 µM | 4.62 µM | 3.66 µM | 23.6 µM | 2.61 µM | 6.44 µM | 4.2 µM | > 100 µM | > 100 µM | 32.2 µM
COc1ccc(/C=C(/c2ccccc2)[N+](=O)[O-])c(OC)c1 | 1.44 µM | 2.92 µM | 1.15 µM | 1.26 µM | 2.76 µM | 2.2 µM | 6.65 µM | 1.48 µM | 2 µM | 4.16 µM | 1.87 µM | 3.87 µM | 1.72 µM | 5.63 µM | 1.58 µM | 2.94 µM | 1.65 µM | 3.05 µM | 5.25 µM | 3.51 µM
O=S(=O)(O)O | – | 1620 µM | – | – | 2010 µM | – | 2240 µM | – | – | > 1900 µM | – | 1210 µM | – | 2360 µM | – | 1840 µM | – | 2580 µM | 1300 µM | 1580 µM
O=[N+]([O-])/C=C/c1c(Cl)cccc1Cl | – | 20.6 µM | – | – | 12.2 µM | – | > 62.9 µM | – | – | 4.26 µM | – | 21 µM | – | 12.5 µM | – | 5.12 µM | – | 12.1 µM | > 100 µM | 4.87 µM
OC1(c2ccccc2)C2CC=CC2C1(c1ccccc1)c1ccccc1 (configuration not stated) | – | > 100 µM | – | – | > 100 µM | – | > 100 µM | – | – | > 100 µM | – | > 100 µM | – | > 100 µM | – | > 100 µM | – | > 100 µM | 95.7 µM | > 100 µM
O=C1NC(N/N=C\C(O)C(O)C(O)C(O)CO)=N/C1=C/c1ccccc1 (configuration not stated) | > 100 µM and 17.6 µM | > 100 µM and 48.9 µM | 77.2 µM and 41.8 µM and > 100 µM | 60.1 µM and 15.5 µM and > 100 µM | > 100 µM and 33.9 µM | > 100 µM and 24.6 µM | > 100 µM and 73.4 µM | 52.6 µM and 15.4 µM and > 100 µM | 51.7 µM and 15.4 µM and > 100 µM | > 100 µM and 33.4 µM | 75.8 µM and 11.8 µM and > 100 µM | > 100 µM and 25.6 µM | – | > 100 µM | > 100 µM and 17.4 µM | > 100 µM and 35.3 µM | 58 µM and 15.3 µM and > 100 µM | > 100 µM and 33.3 µM | > 100 µM | > 100 µM and 31.6 µM
C=C1C(=O)O[C@H]2[C@H]1CC/C(COC(=O)CCCCCC(=O)OC/C1=C/CC[C@@]3(C)O[C@H]3[C@H]3OC(=O)C(=C)[C@@H]3CC1)=C\CC[C@@]1(C)O[C@@H]21 | 3.19 µM | 12.1 µM | 0.694 µM | 1.7 µM | 4.12 µM | 2.72 µM | 22 µM | 2.68 µM | 1.68 µM | 3.62 µM | 3.21 µM | 12.2 µM | 3.64 µM | 24.8 µM | 1.67 µM | 3.58 µM | 4.09 µM | 19.5 µM | 3.66 µM | 8.29 µM
CN1C(=O)c2ccc3ccccc3c2C1=O | – | > 100 µM | – | – | > 100 µM | – | > 100 µM | – | – | > 100 µM | – | > 100 µM | – | > 100 µM | – | > 100 µM | – | > 100 µM | > 100 µM | > 100 µM
CCCCCCCCCCCC1=NC(C)(C)CN1C(C)(C)CO | 3.12 µM | 15.3 µM | 1.77 µM | 2.31 µM | 7.49 µM | 1.45 µM | 3.48 µM | 1.79 µM | 2.1 µM | 4.48 µM | 1.55 µM | 2.91 µM | 2.41 µM | 5.76 µM | 1.85 µM | 3.51 µM | 5.15 µM | 20.2 µM | 4.66 µM | 3.4 µM
O=c1c2c([nH]c3nccn13)CCC2 | – | > 10 µM | – | – | > 10 µM | – | > 10 µM | – | – | > 10 µM | – | > 10 µM | – | > 10 µM | – | > 10 µM | – | > 10 µM | > 10 µM | > 10 µM
